Structures can show the parent of a compound that is named as a salt. Where two headings read alike, the source gives them in different places.
What was measured:
[1] = target: T1, human 5-HT3 receptor (Homo sapiens, UniProt P46098); experiment: Compound affinity for the human 5-HT3 receptor (Assay B), SPA radioligand binding with [9-methyl-3H]BRL-43694; parameters: purchased Perkin Elmer
T1 sequence (P46098 24-478): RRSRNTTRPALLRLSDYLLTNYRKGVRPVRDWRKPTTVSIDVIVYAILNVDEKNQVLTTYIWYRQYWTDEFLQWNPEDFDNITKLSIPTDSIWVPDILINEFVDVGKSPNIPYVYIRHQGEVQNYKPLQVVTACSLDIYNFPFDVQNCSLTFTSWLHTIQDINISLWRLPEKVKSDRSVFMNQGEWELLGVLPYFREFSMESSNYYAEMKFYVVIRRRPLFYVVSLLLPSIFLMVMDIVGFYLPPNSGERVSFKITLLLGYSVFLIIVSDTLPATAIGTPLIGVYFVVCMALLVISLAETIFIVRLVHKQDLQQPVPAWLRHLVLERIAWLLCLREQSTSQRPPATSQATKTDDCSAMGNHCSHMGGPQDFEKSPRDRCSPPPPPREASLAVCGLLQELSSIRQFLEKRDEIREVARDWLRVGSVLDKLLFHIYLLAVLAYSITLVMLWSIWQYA
Method: Compound Affinity for the Human 5-HT3 Receptor (Assay B)
The relative affinity of the various compounds for the human 5-HT3 receptor was measured in a radioligand binding assay, using a scintillation proximity assay (SPA) format. Test compounds were dissolved to 10 mM in 100% DMSO, then serially diluted at 10× assay concentrations in 100% DMSO in 96-well polypropylene plates and further diluted to 4× assay concentrations with the assay buffer. Samples were incubated in 50 mM Tris-HCl, pH 7.5, 3 mM MgCl2, 1 mM EDTA and 10% DMSO with 10 nM [9-methyl-3H]BRL-43694 (Perkin Elmer), 3 μg of human 5-HT3 receptor membranes (Perkin Elmer) and 0.5 mg/mL SPA beads (WGA PVT, Amersham Biosciences) in a final volume of 0.2 mL. Binding reactions were set up in wells of PicoPlates-96 (Perkin Elmer) by adding consecutively 50 μL of each competing compound or buffer, SPA beads, the radioligand and 5-HT3 receptor membranes. After 60-min incubation at room temperature on a Nutator mixer, plates were centrifuged for 15 min at 1,500 rpm, followed by incubation in the dark for 30 min. Radioactivity was counted in the TopCount microplate counter (Perkin Elmer) for 5 min. Total binding control contained buffer only; nonspecific binding was determined in the presence of 30 μM MDL-72222. Specific binding was determined by subtracting nonspecific binding from total binding. All experiments were performed in duplicate using ten concentrations of a competing ligand, with ondansetron included as a control in every run. IC50 values were determined from specific binding data using XLfit4.1 curve fitting software from IDBS Ltd. Ki values were then calculated from the Cheng-Prusoff equation.
(§1) In the table below, the assay in which the data were obtained is shown (as A, B. C, or D) along with the data.

[2] = target: T2, mouse 5-HT3 receptor (Mus musculus, UniProt P23979); experiment: Compound affinity for the mouse 5-HT3 receptor (Assay C), [3H]-GR65630 radioligand binding, Novoscreen; conditions: read-out: Mouse % Inhibition @ 100 nM
T2 construct: host or cells: mouse neuroblastoma cells (N1E-155 as printed)
T2 sequence (P23979 24-489): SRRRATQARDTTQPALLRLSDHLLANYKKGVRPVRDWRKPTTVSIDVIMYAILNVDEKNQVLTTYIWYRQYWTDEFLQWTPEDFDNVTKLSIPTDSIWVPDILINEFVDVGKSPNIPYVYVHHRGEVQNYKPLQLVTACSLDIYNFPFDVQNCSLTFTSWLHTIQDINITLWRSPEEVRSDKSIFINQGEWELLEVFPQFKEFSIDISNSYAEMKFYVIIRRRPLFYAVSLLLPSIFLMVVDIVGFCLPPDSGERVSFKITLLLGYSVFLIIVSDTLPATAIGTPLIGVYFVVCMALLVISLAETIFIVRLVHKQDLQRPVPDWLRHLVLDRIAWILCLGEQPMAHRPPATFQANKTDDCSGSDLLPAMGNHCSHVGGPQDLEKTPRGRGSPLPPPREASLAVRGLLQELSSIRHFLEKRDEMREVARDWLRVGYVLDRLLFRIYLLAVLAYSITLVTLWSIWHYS
Method: Compound Affinity for the Mouse 5-HT3Receptor (Assay C)
Compounds were tested by Novoscreen Biosciences Corporation, 7170 Standard Drive, Hanover, Md. in a radioligand binding assay using the mouse 5-HT3 receptor derived from mouse neuroblastoma cells and [^3H]-GR65630 (ligand). The non-specific binding determinant was MDL 72222. Compounds were tested at a single concentration of 100 nM in duplicate. Percent inhibition is reported. In order to evaluate the relative affinity of the various compounds for the 5-HT3 receptor, N1E-155 cell lines were developed to express the target protein. For binding, these cells were homogenized, centrifuged and washed with buffer (20 mM HEPES, 150 mM NaCl, pH 7.4) then suspended in 0.5 mL of buffer and [^3H]-GR65630 added at a concentration of 3.5×10^−10 M. An initial single concentration of 10^−7 M of the test compound was then added. Incubation was carried out at room temperature for 60 minutes at 25° C. then was terminated by rapid removal of the incubation medium. Radioactivity was assessed using liquid scintillation spectrophotometry after exposure to scintillation cocktail for at least three hours. […] Ki values were then calculated from the Cheng-Prusoff equation. In all of the above binding studies the non-specific determinant was MDL-72222 (1.0 μM).
as §1

[3] = Assay B, SPA, [9-methyl-3H]BRL-43694, Cheng-Prusoff, read-out: Human 5HT3 Ki
[4] = Assay C, single concentration 100 nM, in duplicate, [3H]-GR65630

CN1[C@@H]2CCC[C@H]1C[C@@H](NC(=O)c1cccc3oc(C4CCNCC4)nc13)C2 [Example 27, Endo-N-(9-methyl-9-azabicyclo[3.3.1]non-3-yl)-2-(piperidin-4-yl)benzoxazole-4-carboxamide Dihydrochloride] was tested. Which Ki [1] did it give?
The Ki was 41 nM.

For CCN(CC)Cc1nc2c(C(=O)NC3CN4CCC3CC4)cccc2o1 [Example 40, (S)—N-(Azabicylco[2.2.2]oct-3-yl)-2-(diethylaminomethyl)benzoxazole-4-carboxamide Hydrochloride], which Ki [1, 3] is on record?
The Ki was 129 nM.

O=C(N[C@@H]1CN2CCC1CC2)c1cccc2oc(C3CCCCC3)nc12 [Example 16, (S)—N-(1-Azabicyclo[2.2.2]oct-3-yl)-2-cyclohexylbenzoxazole-4-carboxamide Hydrochloride] was tested. Which inhibition at 0.1 µM [2, 4] did it give?
Its inhibition at 0.1 µM is 94.1%.

O=C(N[C@@H]1CN2CCC1CC2)c1cccc2oc(CN3CCOCC3)nc12 [Example 38, (S)—N-(Azabicyclo[2.2.2]oct-3-yl)-2-(morpholinomethyl)benzoxazole-4-carboxamide Hydrochloride] was tested. Which inhibition at 10 µM ([1]; Assay B, 10 μM) did it give?
The inhibition at 10 µM was 74%.

With CC1CC1c1nc2c(C(=O)NC3CN4CCC3CC4)cccc2o1 (racemic) [Example 14, (S)—N-(1-Azabicyclo[2.2.2]oct-3-yl)-2-(2-methylcyclopropyl)benzoxazole-4-carboxamide Hydrochloride] as the compound, how does the inhibition at 0.1 µM [2] read?
Its inhibition at 0.1 µM is 93.6%.

With CN1[C@@H]2CCC[C@H]1C[C@@H](NC(=O)c1cccc3oc(C45CCN(CC4)CC5)nc13)C2 [Example 26, Endo-N-(9-Methyl-9-azabicyclo[3.3.1]nonan-3-yl)-2-(quinuclidin-4-yl)benzoxazole-4-carboxamide Dihydrochloride] as the compound, how does the Ki [1, 3] read?
Its Ki is 173 nM.

How did the Ki [1] turn out when CN1C2COCC1CC(NC(=O)c1cccc3oc(C4CCCC4)nc13)C2 (stereo not drawn) [Example 32, N-(9-methyl-3-oxa-9-azabicyclo[3.3.1]non-7-yl)-2-(cyclopentyl-4-yl)benzoxazole-4-carboxamide Hydrochloride] was run?
The Ki was 81.9 nM.

CC(=O)N1CCC(c2nc3c(C(=O)N[C@@H]4CN5CCC4CC5)cccc3o2)CC1 [Example 31, (S)—N-(1-Azabicyclo[2.2.2]oct-3-yl)-2-(1-acetylpiperidin-4-yl)benzoxazole-4-carboxamide Hydrochloride] was tested. Which Ki [1, 3] did it give?
The Ki was 356 nM.

How did the inhibition at 0.1 µM [2, 4] turn out when O=C(N[C@@H]1CN2CCC1CC2)c1cccc2oc(C3CCCC3)nc12 [Example 6, (S)—N-(1-Azabicyclo[2.2.2]oct-3-yl)-2-cyclopentylbenzoxazole-4-carboxamide Hydrochloride] was run?
The inhibition at 0.1 µM was 90.2%.

Which inhibition at 0.1 µM [2, 4] does the source give for CN1C2CCCC1CC(NC(=O)c1cccc3oc(C4CCCCC4)nc13)C2 (stereo not drawn) [Example 15, Endo-N-(9-Methyl-9-azabicyclo[3.3.1]non-3-yl)-2-cyclohexylbenzoxazole-4-carboxamide Hydrochloride] here?
The inhibition at 0.1 µM was 105%.

O=C(N[C@@H]1CN2CCC1CC2)c1cccc2oc(C3CCNCC3)nc12 [Example 28, (S)—N-(1-Azabicyclo[2.2.2]oct-3-yl)-2-(piperidin-4-yl)benzoxazole-4-carboxamide Dihydrochloride] was tested. Which Ki [1, 3] did it give?
Its Ki is 111 nM.

Which Ki [1, 3] does the source give for O=C(N[C@@H]1CN2CCC1CC2)c1cccc2oc(C3CCOCC3)nc12 [Example 25, (S)—N-(1-Azabicyclo[2.2.2]oct-3-yl)-2-(tetrahydro-2H-pyran-4-yl)benzoxazole-4-carboxamide Hydrochloride] here?
Its Ki is 126 nM.

For O=C(NC1CC2CCCC(C1)N2)c1cccc2oc(C3CC3)nc12 (stereo not drawn) [Example 36, N-(9-Azabicyclo[3.3.1]non-3-yl)-2-cyclopropylbenzoxazole-4-carboxamide Hydrochloride], which Ki [1] is on record?
The Ki was 6.3 nM.

For CN1CCC(c2nc3c(C(=O)N[C@@H]4CN5CCC4CC5)cccc3o2)CC1 [Example 30, (S)—N-(1-Azabicyclo[2.2.2]oct-3-yl)-2-(1-methylpiperidin-4-yl)benzoxazole-4-carboxamide Dihydrochloride Dihydrochloride], which Ki [1] is on record?
Its Ki is 83 nM.

For C[C@H]1OC(=O)N(C)C1c1nc2c(C(=O)NC3CC4CCCC(C3)N4C)cccc2o1 (stereo partly drawn) [Example 42, Endo-N-(9-methyl-9-azabicyclo[3.3.1]nonan-3-yl)-2-((4S,5R/4R,5S)-3,5-dimethyl-2-oxo-oxazolidin-4-yl)benzoxazole-4-carboxamide], which Ki [1] is on record?
The Ki was 24.9 nM.

For CN1CCCCC1c1nc2c(C(=O)N[C@H]3C[C@H]4CCC[C@@H](C3)N4C)cccc2o1 (mixture of isomers) [Example 33, Endo-N-(9-Methyl-9-azabicyclo[3.3.1]nonan-3-yl)-2-(1-methylpiperidin-2-yl)benzoxazole-4-carboxamide Hydrochloride], which Ki [1] is on record?
The Ki was 21.6 nM.

CCN1C2CCCC1CC(NC(=O)c1cccc3oc(C4CC4)nc13)C2 (stereo not drawn) [Example 21, N-(9-Ethyl-9-azabicyclo[3.3.1]non-3-yl)-2-cyclopropylbenzoxazole-4-carboxamide Hydrochloride] was tested. Which inhibition at 0.1 µM [2, 4] did it give?
The inhibition at 0.1 µM was 34.9%.

CN1[C@@H]2CCC[C@H]1C[C@@H](NC(=O)c1cccc3nc(C(C)(C)C)oc13)C2 [Example 37, Endo-N-(9-methyl-9-azabicyclo[3.3.1]non-3-yl)-2-tert-butyl benzoxazole-7-carboxamide Hydrochloride] was tested. Which Ki [1, 3] did it give?
The Ki was 166 nM.

CN1[C@@H]2CCC[C@H]1C[C@@H](NC(=O)c1cccc3oc(CN4CCOCC4)nc13)C2 [Example 39, Endo-N-(9-Methyl-9-azabicyclo[3.3.1]nonan-3-yl)-2-(morpholinomethyl)benzoxazole-4-carboxamide Hydrochloride] was tested. Which Ki [1] did it give?
The Ki was 77.1 nM.

With CCN(CC)Cc1nc2c(C(=O)N[C@H]3C[C@H]4CCC[C@@H](C3)N4C)cccc2o1 [Example 41, Endo-N-(9-Methyl-9-azabicyclo[3.3.1]nonan-3-yl)-2-(diethylaminomethyl)benzoxazole-4-carboxamide Hydrochloride] as the compound, how does the Ki [1] read?
Its Ki is 15.3 nM.

For CN1CCC(c2nc3c(C(=O)N[C@H]4C[C@H]5CCC[C@@H](C4)N5C)cccc3o2)CC1 [Example 29, Endo-N-(9-methyl-9-azabicyclo[3.3.1]non-3-yl)-2-(1-methylpiperidin-4-yl)benzoxazole-4-carboxamide Dihydrochloride], which Ki [1] is on record?
The Ki was 28 nM.
